# Laboratory results taken from PMC6893898, “Receptor Interaction Profiles of 4-Alkoxy-Substituted 2,5-Dimethoxyphenethylamines and Related Amphetamines” (Frontiers in Pharmacology, 2019).
# What was measured:
# dopaminergic D2 receptor = molecular target: T1, dopaminergic D2 receptor (Homo sapiens, UniProt P14416); test: Radioligand binding, dopaminergic D2 receptor ([3H]spiperone)
# T1 construct: expressed in transfected cells; host or cells: HEK 293 (membrane preparation)
# 5-HT1A receptor = molecular target: T2, 5-HT1A receptor (Homo sapiens, UniProt P08908); test: Radioligand binding, 5-HT1A receptor ([3H]8-OH-DPAT)
# T2 construct: expressed in transfected cells; host or cells: HEK 293 (membrane preparation)
# T2 sequence (P08908 1-422): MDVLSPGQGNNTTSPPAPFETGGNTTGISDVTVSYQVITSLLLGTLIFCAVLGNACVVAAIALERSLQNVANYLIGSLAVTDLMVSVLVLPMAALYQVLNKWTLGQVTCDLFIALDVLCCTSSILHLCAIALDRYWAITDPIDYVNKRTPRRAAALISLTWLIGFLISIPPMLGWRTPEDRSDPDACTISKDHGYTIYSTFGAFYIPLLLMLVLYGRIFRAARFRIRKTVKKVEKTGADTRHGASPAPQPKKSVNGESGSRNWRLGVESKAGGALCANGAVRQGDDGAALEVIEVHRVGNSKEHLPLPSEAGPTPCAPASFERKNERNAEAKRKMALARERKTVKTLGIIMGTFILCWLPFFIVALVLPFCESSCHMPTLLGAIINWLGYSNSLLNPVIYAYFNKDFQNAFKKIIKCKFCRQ
# hNET = hNET (Homo sapiens, UniProt P23975); test: Radioligand binding, NET (N-methyl-[3H]nisoxetine); parameters: expressed in transfected cells; host or cells: HEK 293 (membrane preparation)
# hNET, sequence (P23975 whole entry): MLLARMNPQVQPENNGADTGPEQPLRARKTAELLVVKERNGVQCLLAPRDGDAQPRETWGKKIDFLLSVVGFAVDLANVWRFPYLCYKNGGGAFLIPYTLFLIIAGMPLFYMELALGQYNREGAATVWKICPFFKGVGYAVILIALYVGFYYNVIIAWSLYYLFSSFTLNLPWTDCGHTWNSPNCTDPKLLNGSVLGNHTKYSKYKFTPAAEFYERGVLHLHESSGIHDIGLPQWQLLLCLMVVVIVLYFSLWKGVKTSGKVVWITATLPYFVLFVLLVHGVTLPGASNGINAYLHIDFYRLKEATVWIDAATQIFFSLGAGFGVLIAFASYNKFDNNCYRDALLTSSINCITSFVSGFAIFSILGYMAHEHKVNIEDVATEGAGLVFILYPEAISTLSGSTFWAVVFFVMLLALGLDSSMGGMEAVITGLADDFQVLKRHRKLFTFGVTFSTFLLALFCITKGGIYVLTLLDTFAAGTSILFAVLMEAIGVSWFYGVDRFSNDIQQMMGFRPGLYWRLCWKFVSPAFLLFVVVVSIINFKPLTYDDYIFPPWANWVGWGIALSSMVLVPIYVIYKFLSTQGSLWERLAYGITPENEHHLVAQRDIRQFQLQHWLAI
# hDAT = hDAT (Homo sapiens, UniProt Q01959); test: Radioligand binding, DAT ([3H]WIN35,428); parameters: expressed in transfected cells; host or cells: HEK 293 (membrane preparation)
# hDAT, sequence (Q01959 whole entry): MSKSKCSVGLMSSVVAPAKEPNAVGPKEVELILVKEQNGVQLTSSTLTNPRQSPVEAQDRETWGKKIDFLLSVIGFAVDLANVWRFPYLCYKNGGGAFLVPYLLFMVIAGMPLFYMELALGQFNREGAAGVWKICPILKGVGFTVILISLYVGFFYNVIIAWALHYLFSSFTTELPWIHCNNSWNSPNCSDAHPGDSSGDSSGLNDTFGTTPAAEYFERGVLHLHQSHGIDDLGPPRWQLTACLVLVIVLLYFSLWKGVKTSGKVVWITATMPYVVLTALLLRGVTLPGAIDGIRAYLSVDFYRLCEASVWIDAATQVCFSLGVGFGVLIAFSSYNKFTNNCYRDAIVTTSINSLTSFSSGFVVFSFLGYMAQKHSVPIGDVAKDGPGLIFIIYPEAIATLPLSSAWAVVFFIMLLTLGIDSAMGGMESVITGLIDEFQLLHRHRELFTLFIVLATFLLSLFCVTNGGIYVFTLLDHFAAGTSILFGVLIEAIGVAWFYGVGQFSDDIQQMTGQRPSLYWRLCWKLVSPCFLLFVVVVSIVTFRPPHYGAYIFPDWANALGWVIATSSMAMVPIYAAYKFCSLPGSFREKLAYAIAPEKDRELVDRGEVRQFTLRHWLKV
# α2A adrenergic receptor = molecular target: T3, α2A adrenergic receptor (Homo sapiens, UniProt P08913); test: Radioligand binding, α2A adrenergic receptor ([3H]rauwolscine)
# T3 construct: expressed in transfected cells; host or cells: Chinese hamster lung cell line (membrane preparation)
# T3 sequence (P08913 1-465): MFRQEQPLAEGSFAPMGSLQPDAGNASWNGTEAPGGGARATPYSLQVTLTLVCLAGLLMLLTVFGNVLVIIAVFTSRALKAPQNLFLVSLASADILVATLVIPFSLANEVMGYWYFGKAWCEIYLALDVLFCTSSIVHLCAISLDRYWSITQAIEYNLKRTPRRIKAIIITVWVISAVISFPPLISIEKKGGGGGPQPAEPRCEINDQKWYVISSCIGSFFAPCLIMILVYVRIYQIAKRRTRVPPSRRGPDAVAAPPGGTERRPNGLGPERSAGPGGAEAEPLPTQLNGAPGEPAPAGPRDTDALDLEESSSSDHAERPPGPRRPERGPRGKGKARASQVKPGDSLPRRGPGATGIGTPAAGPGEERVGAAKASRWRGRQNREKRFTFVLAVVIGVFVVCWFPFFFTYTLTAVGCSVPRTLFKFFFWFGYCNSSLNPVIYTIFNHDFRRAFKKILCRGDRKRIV
# mouse TAAR1 = molecular target: T4, mouse TAAR1 (Mus musculus, UniProt Q923Y8); test: Radioligand binding, mouse TAAR1 ([3H]RO5166017)
# T4 construct: expressed in transfected cells; host or cells: HEK 293 (membrane preparation)
# T4 sequence (Q923Y8 whole entry): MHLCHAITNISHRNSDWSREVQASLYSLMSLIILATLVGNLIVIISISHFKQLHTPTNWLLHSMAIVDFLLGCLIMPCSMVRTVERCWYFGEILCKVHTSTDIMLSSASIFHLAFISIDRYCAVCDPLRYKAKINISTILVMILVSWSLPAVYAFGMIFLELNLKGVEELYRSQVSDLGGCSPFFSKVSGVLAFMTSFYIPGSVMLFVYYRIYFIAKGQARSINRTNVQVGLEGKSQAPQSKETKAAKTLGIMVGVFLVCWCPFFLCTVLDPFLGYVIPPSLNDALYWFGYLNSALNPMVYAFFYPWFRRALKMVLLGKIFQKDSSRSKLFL
# 5-HT2C receptor = molecular target: T5, 5-HT2C receptor (Homo sapiens, UniProt P28335); test: biochemical; type: binding; conditions: for Ki: [3H]mesulgerine, read-out: h5-HT2C Receptor binding Ki ± SD
# T5 construct: expressed in transfected cells; host or cells: HEK 293 (membrane preparation)
# T5 sequence (P28335 33-458): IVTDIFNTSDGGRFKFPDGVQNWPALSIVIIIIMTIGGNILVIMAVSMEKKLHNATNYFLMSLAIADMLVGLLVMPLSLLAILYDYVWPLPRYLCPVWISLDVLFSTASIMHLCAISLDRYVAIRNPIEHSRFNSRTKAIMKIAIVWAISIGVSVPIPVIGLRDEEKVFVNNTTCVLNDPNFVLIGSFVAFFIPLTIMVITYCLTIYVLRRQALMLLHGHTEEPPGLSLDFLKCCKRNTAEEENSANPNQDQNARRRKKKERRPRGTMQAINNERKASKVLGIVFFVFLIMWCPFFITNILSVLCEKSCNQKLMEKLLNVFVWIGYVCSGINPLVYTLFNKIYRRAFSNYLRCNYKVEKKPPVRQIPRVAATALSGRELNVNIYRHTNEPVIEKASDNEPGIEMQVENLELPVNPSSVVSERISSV
# hSERT = hSERT (Homo sapiens, UniProt P31645); test: Radioligand binding, SERT ([3H]citalopram); parameters: expressed in transfected cells; host or cells: HEK 293 (membrane preparation)
# hSERT, sequence (P31645 whole entry): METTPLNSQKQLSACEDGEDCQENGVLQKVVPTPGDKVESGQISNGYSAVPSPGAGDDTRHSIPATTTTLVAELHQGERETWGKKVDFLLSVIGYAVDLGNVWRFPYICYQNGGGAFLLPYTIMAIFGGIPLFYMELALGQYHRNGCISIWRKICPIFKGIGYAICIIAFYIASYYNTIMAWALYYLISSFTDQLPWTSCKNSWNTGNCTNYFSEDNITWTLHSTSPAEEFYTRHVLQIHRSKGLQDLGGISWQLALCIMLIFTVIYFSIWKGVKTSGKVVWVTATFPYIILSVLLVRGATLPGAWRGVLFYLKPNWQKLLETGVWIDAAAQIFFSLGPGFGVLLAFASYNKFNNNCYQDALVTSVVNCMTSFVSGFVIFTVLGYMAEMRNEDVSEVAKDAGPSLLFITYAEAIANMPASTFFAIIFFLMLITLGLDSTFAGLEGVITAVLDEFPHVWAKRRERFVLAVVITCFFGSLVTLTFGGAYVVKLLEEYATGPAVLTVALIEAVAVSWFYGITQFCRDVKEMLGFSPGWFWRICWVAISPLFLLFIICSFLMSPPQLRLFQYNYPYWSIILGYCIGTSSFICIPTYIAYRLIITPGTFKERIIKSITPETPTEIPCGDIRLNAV
# T1 sequence (P14416 whole entry): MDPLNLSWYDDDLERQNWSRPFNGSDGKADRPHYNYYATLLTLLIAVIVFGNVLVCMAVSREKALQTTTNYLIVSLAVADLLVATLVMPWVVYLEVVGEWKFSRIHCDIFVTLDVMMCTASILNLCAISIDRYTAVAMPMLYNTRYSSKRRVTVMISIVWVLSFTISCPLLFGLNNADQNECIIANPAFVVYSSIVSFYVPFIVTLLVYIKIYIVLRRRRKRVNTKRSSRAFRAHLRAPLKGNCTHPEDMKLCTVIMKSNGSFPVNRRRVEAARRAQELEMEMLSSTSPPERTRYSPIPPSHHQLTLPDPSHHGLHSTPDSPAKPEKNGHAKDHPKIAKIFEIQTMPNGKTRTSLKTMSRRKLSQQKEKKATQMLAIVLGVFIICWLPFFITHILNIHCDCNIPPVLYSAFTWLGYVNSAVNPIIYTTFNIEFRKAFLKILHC
Structure (SMILES),Ki (dopaminergic D2 receptor) [µM],Ki (5-HT1A receptor) [µM],Ki (hNET) [µM],Ki (hDAT) [µM],Ki (α2A adrenergic receptor) [nM],Ki (mouse TAAR1) [nM],Ki (5-HT2C receptor) [nM],Ki (hSERT) [µM],Enhancement of 5-HT2C binding affinity compared to TMA-2 (19) (5-HT2C receptor) [fold],Increase in 5-HT2C binding affinity compared to MFEM (15) (5-HT2C receptor) [fold],Reduction of 5-HT2C binding affinity compared to TMA-2 (19) (5-HT2C receptor) [fold]
"CCOc1cc(OC)c(CCN)cc1OC [2C-O-2, 2,5-dimethoxy-4-ethoxyphenethylamine]",> 4.8,3.6 ± 0.4,> 9.7,> 8.7,2600 ± 100,4000 ± 1100,2300 ± 1200,> 8.6,–,–,–
"C=C(C)COc1cc(OC)c(CCN)cc1OC [2C-O-3, 2,5-dimethoxy-4-methallyloxyphenethylamine]",> 4.8,2.7 ± 0.2,> 9.7,> 8.7,180 ± 10,1100 ± 400,150 ± 30,> 8.6,–,–,–
"C=CCOc1cc(OC)c(CCN)cc1OC [2C-O-16, 4-allyloxy-2,5-dimethoxyphenethylamine]",> 4.8,4.5 ± 0.5,> 9.7,> 8.7,620 ± 20,2500 ± 1000,470 ± 40,> 8.6,–,–,–
"COc1cc(OCCF)c(OC)cc1CCN [2C-O-21, 2,5-dimethoxy-4-(2-fluoroethoxy)phenethylamine]",> 4.8,5.5,> 9.7,> 8.7,3600 ± 500,> 4900,3600 ± 1900,> 8.6,–,–,–
"COc1cc(OCC(F)F)c(OC)cc1CCN [2C-O-21.5, 4-(2,2-difluoroethoxy)-2,5-dimethoxyphenethylamine]",> 4.8,2.9 ± 0.2,> 9.7,> 8.7,1900 ± 100,> 4800,4200 ± 1500,> 8.6,–,–,–
"COc1cc(OCC(F)(F)F)c(OC)cc1CCN [2C-O-22, 2,5-dimethoxy-4-(2,2,2-trifluoroethoxy)phenethylamine]",> 4.8,3.3 ± 0.2,> 9.7,> 8.7,1800 ± 100,2500 ± 400,1900 ± 400,> 8.6,–,–,–
"COc1cc(OCc2ccccc2)c(OC)cc1CCN [2C-O-27, 4-benzyloxy-2,5-dimethoxyphenethylamine]",> 4.8,2.7 ± 0.1,> 9.7,6.1 ± 0.4,570 ± 30,650 ± 190,110 ± 50,> 8.6,–,–,–
"C=CCOc1cc(OC)c(CC(C)N)cc1OC (stereo not drawn) [MALM, 4-allyloxy-2,5-dimethoxyamphetamine]",> 4.4,> 5.6,> 9.7,> 8.7,> 4800,2000 ± 400,900 ± 220,> 8.6,6,–,–
"COc1cc(OCC(F)F)c(OC)cc1CC(C)N (stereo not drawn) [MDFEM, 4-(2,2-difluoroethoxy)-2,5-dimethoxyamphetamine]",> 4.8,> 5.6,> 9.7,> 8.7,> 4800,> 4800,6700 ± 2400,> 8.6,–,2,–
"COc1cc(OCCF)c(OC)cc1CC(C)N (stereo not drawn) [MFEM, 2,5-dimethoxy-4-(2-fluoroethoxy)amphetamine]",> 4.8,> 5.6,> 9.7,> 8.7,> 4800,> 4900,11000 ± 3000,> 8.6,–,–,–
"COc1cc(OC(C)C)c(OC)cc1CC(C)N (stereo not drawn) [MIPM, 2,5-dimethoxy-4-isopropoxyamphetamine]",> 4.8,> 5.6,> 9.7,> 8.7,> 4800,> 4800,9030 ± 2390,> 8.6,–,–,2
"C=C(C)COc1cc(OC)c(CC(C)N)cc1OC (stereo not drawn) [MMALM, 2,5-dimethoxy-4-methallyloxyamphetamine]",> 4.8,–,> 9.7,> 8.7,2400 ± 200,1700 ± 900,290 ± 110,> 8.6,18,–,–
"COc1cc(OCC(F)(F)F)c(OC)cc1CC(C)N (stereo not drawn) [MTFEM, 2,5-dimethoxy-4-(2,2,2-trifluoroethoxy)amphetamine]",> 4.8,> 5.6,> 9.7,> 8.7,> 4800,4500 ± 500,2400 ± 800,> 8.6,–,~5,–
